Experimental data reported in ChEMBL document CHEMBL1201862, “PubChem BioAssay data set” (2004).
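Tested at 5 concentrations; 48 h exposure; 96-well plates; endpoints linearly interpolated, else capped at highest concentration. GI50 is the concentration that inhibits growth by half.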 Calls of active or inactive are those of the source. Rule as the data show it: active = GI50 up to about 1.1 µM and inactive = higher. Where a SMILES comes first, the peptide text is derived from it.

Legend:
Test in all cases: NCI-60 cell line screen, 48 h
NCI/ADR-RES = tested on: NCI/ADR-RES
CCRF-CEM = tested on: CCRF-CEM
NCI-H522 = tested on: NCI-H522
A498 = tested on: A498
SNB-19 = tested on: SNB-19
OVCAR-3 = tested on: OVCAR-3
CAKI-1 = tested on: CAKI-1
HCT-116 = tested on: HCT-116
RPMI-8226 = tested on: RPMI-8226
MDA-MB-435 = tested on: MDA-MB-435
HT-29 = tested on: HT-29
SN12C = tested on: SN12C
NCI-H226 = tested on: NCI-H226
NCI-H23 = tested on: NCI-H23
EKVX = tested on: EKVX
A549 = tested on: A549
SW-620 = tested on: SW-620
SF-268 = tested on: SF-268
Malme-3M = tested on: Malme-3M
RXF 393 = tested on: RXF 393

Measured: GI50

NN(CC(=O)O)CC(=O)O
inactive: NCI/ADR-RES > 100 µM | CCRF-CEM > 100 µM | NCI-H522 > 100 µM | A498 > 100 µM | SNB-19 > 100 µM | OVCAR-3 > 100 µM | CAKI-1 > 100 µM | HCT-116 > 100 µM | RPMI-8226 > 100 µM | MDA-MB-435 > 100 µM | HT-29 > 100 µM | SN12C > 100 µM | NCI-H226 > 100 µM | NCI-H23 > 100 µM | EKVX > 100 µM | A549 > 100 µM | SW-620 > 100 µM | SF-268 > 100 µM | Malme-3M > 100 µM

COc1cc2c(c(OC)c1OC)C(=O)[C@@H]1[C@H]2N1C(N)=O
inactive: NCI/ADR-RES > 100 µM | CCRF-CEM > 100 µM | RXF 393 79.8 µM | NCI-H522 > 100 µM | SNB-19 > 100 µM | OVCAR-3 > 100 µM | CAKI-1 > 100 µM | HCT-116 > 100 µM | RPMI-8226 > 100 µM | MDA-MB-435 > 100 µM | HT-29 > 100 µM | SN12C > 100 µM | NCI-H226 > 100 µM | NCI-H23 69.2 µM | EKVX > 100 µM | A549 > 100 µM | SW-620 > 100 µM | SF-268 > 100 µM | Malme-3M > 100 µM

NCCCCC(N)C(=O)N1CCN(c2nc(N3CCCC3)c3nc(Cl)c(NCc4ccccc4)nc3n2)CC1 (stereo not drawn)
inactive: NCI/ADR-RES 44.6 µM | CCRF-CEM 15.5 µM | RXF 393 15.9 µM | NCI-H522 19.3 µM | SNB-19 17.1 µM | OVCAR-3 18.9 µM | CAKI-1 31 µM | HCT-116 16.6 µM | RPMI-8226 17.8 µM | MDA-MB-435 23.2 µM | HT-29 18.9 µM | SN12C 18.4 µM | NCI-H226 20.8 µM | NCI-H23 19.4 µM | EKVX 18.7 µM | A549 18.5 µM | SW-620 19.6 µM | SF-268 20 µM | Malme-3M 23 µM

COc1cc(/C=C2\N=C(c3ccccc3)N(/N=C/c3cc4cc(C)ccc4nc3Cl)C2=O)ccc1O
inactive: NCI/ADR-RES 31.6 µM | CCRF-CEM 16.2 µM | RXF 393 34 µM | A498 16.6 µM | SNB-19 67.8 µM | OVCAR-3 38.9 µM | CAKI-1 78 µM | HCT-116 20.4 µM | RPMI-8226 31.6 µM | MDA-MB-435 17.3 µM | HT-29 33.8 µM | SN12C 30 µM | EKVX 37.2 µM | A549 37.5 µM | SW-620 39.2 µM | SF-268 39.2 µM

NC(=O)C1CCCN1C(=O)C(N)Cc1ccccc1 (stereo not drawn) (H-Phe-Pro-NH2; configuration not given here)
inactive: NCI/ADR-RES > 100 µM | CCRF-CEM > 100 µM | NCI-H522 > 100 µM | A498 76.7 µM | SNB-19 > 100 µM | OVCAR-3 > 100 µM | CAKI-1 > 100 µM | HCT-116 > 100 µM | RPMI-8226 > 100 µM | MDA-MB-435 > 100 µM | HT-29 > 100 µM | EKVX > 100 µM | A549 > 100 µM | SW-620 > 100 µM | SF-268 > 100 µM | Malme-3M > 100 µM

COc1cc2c(cc1-c1coc3cc(O)ccc3c1=O)OCO2 [CUNEATIN]
inactive: NCI/ADR-RES 21.8 µM | CCRF-CEM > 100 µM | NCI-H522 16.4 µM | A498 31 µM | SNB-19 19.5 µM | OVCAR-3 32.6 µM | CAKI-1 24 µM | HCT-116 18.7 µM | RPMI-8226 26.5 µM | MDA-MB-435 > 100 µM | HT-29 99.3 µM | SN12C 25.4 µM | NCI-H226 20.3 µM | NCI-H23 19.5 µM | EKVX 34.4 µM | A549 30.3 µM | SW-620 32.8 µM | SF-268 19.3 µM

CC(=O)OCC1OC(Sc2nc(-c3ccccc3)c(C#N)c(=O)n2C2OC(COC(C)=O)C(OC(C)=O)C(OC(C)=O)C2OC(C)=O)C(OC(C)=O)C(OC(C)=O)C1OC(C)=O (stereo not drawn)
inactive: NCI/ADR-RES > 100 µM | RXF 393 > 100 µM | NCI-H522 > 100 µM | A498 > 100 µM | OVCAR-3 > 100 µM | CAKI-1 > 100 µM | HCT-116 > 100 µM | RPMI-8226 > 100 µM | MDA-MB-435 > 100 µM | HT-29 > 100 µM | SN12C > 100 µM | NCI-H226 > 100 µM | NCI-H23 > 100 µM | EKVX > 100 µM | A549 > 100 µM | SW-620 > 100 µM | SF-268 > 100 µM

O=C1OCC2=C1C(c1ccc(Cl)cc1)c1cc3c(cc1O2)OCO3 (stereo not drawn)
active: MDA-MB-435 0.778 µM
inactive: NCI/ADR-RES 2.64 µM | CCRF-CEM 2.52 µM | RXF 393 4.06 µM | A498 8.24 µM | SNB-19 6.97 µM | OVCAR-3 3.72 µM | CAKI-1 1.66 µM | HCT-116 3 µM | RPMI-8226 3.46 µM | HT-29 3.72 µM | SN12C 10.5 µM | NCI-H226 > 100 µM | NCI-H23 6.9 µM | EKVX 21 µM | A549 4.79 µM | SW-620 2.88 µM | SF-268 7.43 µM | Malme-3M 6.41 µM

CCOC(=O)c1nnsc1NN
inactive: NCI/ADR-RES > 100 µM | CCRF-CEM 18.8 µM | RXF 393 > 100 µM | NCI-H522 > 100 µM | SNB-19 > 100 µM | OVCAR-3 > 100 µM | CAKI-1 76.2 µM | HCT-116 55.5 µM | MDA-MB-435 > 100 µM | HT-29 55.5 µM | SN12C > 100 µM | NCI-H226 > 100 µM | NCI-H23 > 100 µM | EKVX > 100 µM | A549 62.5 µM | SW-620 > 100 µM | SF-268 > 100 µM

OCCN(CCO)c1ccc2c(c1)Cc1ccccc1-2
inactive: NCI/ADR-RES 46.8 µM | CCRF-CEM > 100 µM | A498 35.1 µM | SNB-19 > 100 µM | OVCAR-3 17 µM | CAKI-1 10.3 µM | HCT-116 21 µM | RPMI-8226 44.8 µM | MDA-MB-435 51.6 µM | HT-29 18.8 µM | SN12C 52.1 µM | NCI-H226 44.4 µM | NCI-H23 51.4 µM | EKVX 43.1 µM | A549 37.8 µM | SW-620 64.4 µM | SF-268 26.2 µM | Malme-3M 60.7 µM

COC(=O)[C@H](Cc1ccccc1)NC(=O)OCC1OC(n2cc(C)c(=O)[nH]c2=O)CC1N=[N+]=[N-] (stereo partly drawn)
inactive: NCI/ADR-RES > 100 µM | CCRF-CEM > 100 µM | RXF 393 > 100 µM | NCI-H522 > 100 µM | SNB-19 > 100 µM | OVCAR-3 > 100 µM | CAKI-1 > 100 µM | HCT-116 > 100 µM | RPMI-8226 > 100 µM | MDA-MB-435 > 100 µM | HT-29 > 100 µM | SN12C > 100 µM | NCI-H226 > 100 µM | NCI-H23 > 100 µM | EKVX > 100 µM | A549 > 100 µM | SW-620 > 100 µM | SF-268 > 100 µM | Malme-3M > 100 µM

CCOC(=O)c1nnc2c(C(=O)OCC)c3ccccc3n2c1N
inactive: NCI/ADR-RES 3.61 µM | CCRF-CEM 2.22 µM | RXF 393 > 100 µM | NCI-H522 6.21 µM | A498 4.85 µM | SNB-19 4.93 µM | OVCAR-3 4.46 µM | CAKI-1 7.48 µM | HCT-116 29.3 µM | RPMI-8226 1.54 µM | MDA-MB-435 5.05 µM | HT-29 22.8 µM | SN12C 6.67 µM | NCI-H23 5.94 µM | EKVX 25.8 µM | A549 10.5 µM | SW-620 8.26 µM | SF-268 19.3 µM | Malme-3M 2.1 µM

Cc1nc(C(N)=S)sc1C(=O)C/C(=N/N)C(=O)Nc1ccc(Cl)cc1
inactive: NCI/ADR-RES 60.4 µM | RXF 393 > 100 µM | NCI-H522 31 µM | SNB-19 72.4 µM | OVCAR-3 37.5 µM | CAKI-1 > 100 µM | HCT-116 > 100 µM | RPMI-8226 38.2 µM | MDA-MB-435 > 100 µM | HT-29 58.3 µM | SN12C > 100 µM | NCI-H226 > 100 µM | NCI-H23 57.9 µM | EKVX 52.8 µM | A549 > 100 µM | SW-620 > 100 µM | SF-268 > 100 µM | Malme-3M > 100 µM

COc1ccccc1N1C(=O)CSC1c1cccc(Oc2ccccc2)c1 (stereo not drawn)
inactive: NCI/ADR-RES 19.7 µM | CCRF-CEM 26.1 µM | RXF 393 17.8 µM | NCI-H522 16.2 µM | A498 20.7 µM | SNB-19 23.8 µM | OVCAR-3 21.1 µM | CAKI-1 23.8 µM | HCT-116 17.6 µM | MDA-MB-435 9.82 µM | HT-29 20.1 µM | SN12C 17.2 µM | NCI-H226 20.3 µM | NCI-H23 20.8 µM | EKVX 17.2 µM | A549 21.8 µM | SW-620 21.9 µM | SF-268 17.5 µM | Malme-3M 16.3 µM

CCOc1ccc(/C=C2\N=C(c3ccccc3)OC2=O)cc1
inactive: NCI/ADR-RES > 100 µM | CCRF-CEM > 100 µM | RXF 393 > 100 µM | NCI-H522 48.5 µM | SNB-19 > 100 µM | OVCAR-3 > 100 µM | RPMI-8226 > 100 µM | MDA-MB-435 > 100 µM | HT-29 > 100 µM | NCI-H226 > 100 µM | NCI-H23 > 100 µM | EKVX > 100 µM | A549 > 100 µM | SW-620 > 100 µM | SF-268 > 100 µM
